# Data: US12171748B2, “Nitroimidazole formulations” (priority 2018, dated 2024)
# Counter-ions that a name gives are not always drawn.
# Tests used:
# [1] = cited from earlier work; for solubility in hot/boiling ethanol: hot or boiling ethanol; for solubility in hot/boiling water: hot or boiling water
# [2] = system: 6 strains of C. difficile; experiment: Checkerboard assay for antibiotic combinations; format: cell-based, Clostridium difficile; parameters: unit not given here
# Experimental: The three combinations below were tested vs. 6 strains of C. difficile following the experimental protocols and synergy calculations set out in Magi et al. 2015. • Berberine+Metronidazole • Berberine+Vancomycin • Metronidazole+Vancomycin
# In accordance with Magi et al. 2015, synergy is calculated using the equation below: ΣFIC=FICA+FICB=MICA (combine)/MICA (alone)+MICB (combine)/MICB (alone)
# When ΣFIC≤0.5, synergy is observed.
# [3] = system: ribotype 027 C. difficile strain (M7404); experiment: In vivo mouse trial; parameters: species or system C57BL6/J mice
# Experimental: Groups of five, six week old, male, C57BL6/J mice were pre-treated with an antibiotic cocktail in the drinking water containing kanamycin (0.4 mg/ml), gentamicin (0.035 mg/ml), colistin (850 U/ml), metronidazole (0.215 mg/ml), vancomycin (0.045 mg/ml) and cefaclor (0.3 mg/ml) for 7 days, followed by three days of cefaclor alone. These antibiotics disrupt the resident microbiota and induce susceptibility to infection with Clostridium difficile. On the day of infection, antibiotic pre-treatment was ceased and mice were switched to plain drinking water prior to infection with a ribotype 027 C. difficile strain (M7404) at a dose of 10^5 spores/mouse by oral gavage. Eight hours post-infection, mice were orally administered 100 ul of the respective treatments, followed by the immediate addition of the treatment to the drinking water. The treatments were replenished fresh daily. The mice were monitored twice daily for signs of infection and faecal samples were analysed by microbiological techniques for the presence of C. difficile spores. Mice were humanely killed when they reached ethical endpoints, which include 10% acute weight loss (in the first 24 hours) or 15% chronic weight loss.
# [4] = cited from earlier work
# [5] = system: six strains of C. difficile; experiment: MIC/MBC of compounds against six strains of C. difficile; format: cell-based, Clostridium difficile; details: vs. the six strains
# Experimental: Eleven natural compounds, metronidazole and a positive control, vancomycin, were tested against six strains of C. difficile as shown in Table 4. […] The eleven natural compounds, or combinations, tested were: • 1. […] Matrine • 6. […] Andrographolide • 8. […] The natural compounds, metronidazole and vancomycin were obtained from commercial sources, e.g. Sigma-Aldrich.
# [6] = single agent 50 mg/kg, oral and drinking water, infected mice
smiles,measurement,setting,value
O=C1C=CC2(CCC23C=CC(=O)O3)O1 (stereo not shown) [Anemonin],solubility in cold water,[1]; cold water,slightly soluble
same,solubility in hot/boiling ethanol,[1],soluble
same,solubility in hot/boiling water,[1],soluble
COc1ccc2cc3[n+](cc2c1OC)CCc1cc2c(cc1-3)OCO2 [Berb],MICBerb (alone),[2]; Replicate 1,1024
same,MICBerb (combine),"[2]; Replicate 1, pair 128, 0.5",128
same,MICBerb (alone),[2]; Replicate 2,512
same,MICBerb (combine),"[2]; Replicate 2, pair 128, 0.5",128
same,survival time of mice,[3]; either 25 mg/kg or 50 mg/kg,did not increase the survival time
same,survival D0,[3]; single agent 25 mg/kg,100%
same,survival D1,[3]; single agent 25 mg/kg,0%
same,survival D1½,[3]; single agent 25 mg/kg,0%
same,survival D1¾,[3]; single agent 25 mg/kg,0%
same,survival D2,[3]; single agent 25 mg/kg,0%
same,survival D3,[3]; single agent 25 mg/kg,0%
same,survival D4,[3]; single agent 25 mg/kg,0%
same,survival D1,[3]; single agent 50 mg/kg,20%
same,survival D1½,[3]; single agent 50 mg/kg,0%
same,survival D1¾,[3]; single agent 50 mg/kg,0%
same,survival D2,[3]; single agent 50 mg/kg,0%
same,survival D3,[3]; single agent 50 mg/kg,0%
same,survival D4,[3]; single agent 50 mg/kg,0%
same,survival D0,[3]; [6],100%
O=C(O)[C@H]1O[C@@H](Oc2cc3oc(-c4ccccc4)cc(=O)c3c(O)c2O)[C@H](O)[C@@H](O)[C@@H]1O [Baicalin],stability in alkaline environment,[4],unstable
same,"solubility in N,N-dimethylformamide","[1]; N,N-dimethylformamide",diffluent
same,solubility in alkaline solution,"[1]; alkaline solution, such as sodium bicarbonate, sodium carbonate, sodium hydroxide",soluble
same,solubility in water,[1],almost insoluble
COC(=O)C1=CCCN(C)C1 [arecoline hydrobromide],solubility in ethanol,[1],diffluent
same,solubility in water,[1],diffluent
CN[C@H](CC(C)C)C(=O)N[C@H]1C(=O)N[C@@H](CC(N)=O)C(=O)N[C@H]2C(=O)N[C@H]3C(=O)N[C@H](C(=O)N[C@H](C(=O)O)c4cc(O)cc(O)c4-c4cc3ccc4O)[C@H](O)c3ccc(c(Cl)c3)Oc3cc2cc(c3O[C@@H]2O[C@H](CO)[C@@H](O)[C@H](O)[C@H]2O[C@H]2C[C@](C)(N)[C@H](O)[C@H](C)O2)Oc2ccc(cc2Cl)[C@H]1O [Vancomycin],MBC range,[5],≥ 1 µg/mL
"Cc1ncc([N+](=O)[O-])n1CCO [Metronidazole, 2-methyl-5-nitroimidazole-1-ethanol]",MICMet (alone),[2]; Replicate 1,1
same,MICMet (combine),"[2]; Replicate 1, pair 128, 0.5",0.5
same,MICMet (combine),"[2]; Replicate 1, pair 256, 0.25",0.25
same,MICMet (combine),"[2]; Replicate 1, pair 256, 0.5",0.5
same,MICMet (alone),[2]; Replicate 2,2
same,MICMet (combine),"[2]; Replicate 2, pair 128, 0.5",0.5
same,MICMet (combine),"[2]; Replicate 2, pair 256, 0.25",0.25
same,MICMet (combine),"[2]; Replicate 2, pair 256, 0.5",0.5
same,mice survived to the end of the experiment (day 4),[3]; Metronidazole (50 mg/kg) group,1/5
same,survival compared to untreated mice,[3]; either 25 mg/kg or 50 mg/kg,no statistical difference in survival
same,survival D0,[3]; single agent 25 mg/kg,100%
same,survival D1,[3]; single agent 25 mg/kg,60%
same,survival D1½,[3]; single agent 25 mg/kg,20%
same,survival D1¾,[3]; single agent 25 mg/kg,20%
same,survival D2,[3]; single agent 25 mg/kg,0%
same,survival D3,[3]; single agent 25 mg/kg,0%
same,survival D4,[3]; single agent 25 mg/kg,0%
same,survival D1,[3]; single agent 50 mg/kg,100%
same,survival D1½,[3]; single agent 50 mg/kg,100%
same,survival D1¾,[3]; single agent 50 mg/kg,100%
same,survival D2,[3]; single agent 50 mg/kg,20%
same,survival D3,[3]; single agent 50 mg/kg,20%
same,survival D4,[3]; single agent 50 mg/kg,20%
same,survival D0,[3]; [6],100%
C=C1CC[C@@H]2[C@](C)(CO)[C@H](O)CC[C@@]2(C)[C@@H]1C/C=C1/C(=O)OC[C@H]1O [Andrographolide],solubility in ethanol at ambient temperature,[1]; ethanol at ambient temperature,poorly soluble
same,solubility in hot/boiling ethanol,[1],soluble
same,solubility in water,[1],almost insoluble
COc1cc2c(cc1OC)-c1cc3ccc(OC)c(OC)c3c[n+]1CC2 [Palmatine chloride],solubility in ethanol,[1],slightly soluble
same,solubility in hot/boiling water,[1],soluble
same,solubility in water,[1],sparingly soluble
COC(=O)C1=CCCN(C)C1 [Arecoline],solubility in ethanol,[1],produces a solution
same,solubility in water,[1],produces a solution
